What was measured:
[1] = tested on: proteolysis abilities of Staphylococcus aureus; assay: Milk agar plate-based proteolysis assay; type: cell-based
Description: FIG. 6: Milk agar plate-based assay illustrating that beta-lactones have an effect on the proteolysis abilities of Staphylococcus aureus. 2.5 μL of S. aureus LB dilution (OD600=0.13 corresponding to approx. 1×10^8 cfu/ml) and 2.5 μL DMSO/beta-lactone in DMSO were applied on Whatman Cards placed on 1% skim milk LB agar plates and incubated at 37° C. over night. A) Direct comparison of beta-lactones as shown in FIG. 2 at a total amount of 250 nmol applied on Whatman Cards. B) Dose down with beta-lactones D3, E2 and G2 at applied concentrations of 100 mM, 50 mM, 25 mM, 12.5 mM, 6.25 mM and 0 mM (corresponding to total amounts of 250 nmol, 125 nmol, 62.5 nmol, 31.3 nmol, 15.6 nmol and 0 nmol, respectively). C) Proteolysis zone size plotted against the total amount of the respective beta-lactone.
2.5 μL of S. aureus LB dilution (OD600=0.13 corresponding to approx. 1×10^8 cfu/ml) and 2.5 μL DMSO/beta-lactone in DMSO were applied on Whatman Cards placed on 1% skim milk LB agar plates and incubated at 37° C. over night. FIG. 6A directly compares the β-lactones at a total amount of 250 nmol applied on Whatman Cards. […] For D3 and E2 almost no proteolysis is observed down to a total amount of 125 nmol of the respective beta-lactone. FIG. 6C illustrates that the proteolysis zone size plotted against the total amount of beta-lactone visualizes the strong effects particularly of D3 and E2.

[2] = tested on: extracellular DNase of S. aureus; assay: DNase assay using DNA containing agar plates; type: cell-based, Staphylococcus aureus; conditions: 250 nmol
From the text: FIG. 4: Agar plate-based virulence assays.
A dose down in FIG. 5 indicates the different potencies of structurally diverse ClpP inhibitors for E2, G2 and D3. […] Extracellular DNase also is part of the S. aureus virulence factors. Its purpose is to destroy the hosts DNA and provide a nutritional source for S. aureus.

[3] = tested on: β-Ketoacyl acyl carrier protein synthase II (KAS II); assay: ABPP labeling of bacterial proteomes, KAS II; type: binding, L. welshimeri, B. subtilis; conditions: 50 μM probe, FIGS. 9A and 9B
From the text: The library of beta-lactones to be tested comprised compounds with aliphatic or aromatic substitutions varying in length and branching. To evaluate the target selectivity, the beta-lactones were screened against several gram-positive and gram-negative bacterial proteomes including Pseudomonas putida, Listeria welshimeri, Bacillus licheniformis, Bacillus subtilis and Escherichia coli, which are phylogenetically related to pathogenic strains. In addition, mouse liver cytosol was included as an eukaryotic reference proteome. Initial labeling experiments were carried out by adding individual probes at 50 μM concentration to the proteome which is sufficient to achieve full saturation of most targets. […] As an example, labeling of L. welshimeri cytosolic and membrane proteomes as well as B. subtilis cytosolic proteome with a subset of the most complementary probes is shown in FIGS. 9A and 9B. […] Most of the targeted proteins were of low abundance as shown by the direct comparison of the relative intensities observed with Coomassie staining vs. fluorescence scanning (FIG. 11).
Proteome samples were adjusted to a final concentration of 1 mg protein/mL by dilution in PBS prior to probe labeling. […]

[4] = target: T1, ClpP (Listeria monocytogenes serovar 1/2a, UniProt Q9RQI6); assay: In vivo labeling of Listeria proteomes; type: cell-based; conditions: living L. monocytogenes EGDe, cytosol, 2 h incubation
T1 construct: endogenous in cells; host or cells: living Listeria monocytogenes EGDe, stationary phase
Description: For analytical and preparative in vivo studies, Listeria were grown to stationary phase and harvested by centrifugation at 4,000 rpm 1 h after entrance in the stationary phase (1.5 ml for analytical and 15 ml for preparative studies). The cell pellets were washed once with PBS and resuspended in 100 μL and 500 μL PBS for analytical and preparative studies, respectively. The cell suspensions were incubated for 2 h with varying concentrations of probe at room temperature. Probes were applied from DMSO stocks whereby DMSO never exceeded 2% in the final solution. For preparative experiments, 50 μM of the probes was added to the cells resuspended in PBS. After incubation, the cells were washed thoroughly three times with PBS to remove excess probe from the supernatant. Subsequently the cells were lysed in 100 μL (500 μL) PBS by sonication with a Bandelin Sonopuls with 3×20 sec. pulsed at 70% max. power. For analytical experiments 44 μL proteome were used to append a reporter tag via CC, such that once CC reagents were added, the total reaction volume was 50 μL. In preparative purposes the total volume of 500 μL it was consumed per experiment. Reporter tagged-azide reagents (13 μM rhodamine-azide for analytical or 20 μM rhodamine-biotin-azide for preparative scale) were added followed by 1 mM TCEP and 100 μM ligand. Samples were gently vortexed and the cycloaddition initiated by the addition of 1 mM CuSO4. The reactions were incubated at room temperature for 1 h. For analytical gel electrophoresis, 50 μL 2×SDS loading buffer were added and 50 μL applied on the gel. Fluorescence was recorded in a Fujifilm Las-3000 Fluoreszenz Darkbox with a Fujinon VRF 43LMD Lens, 605DF40 filter and 520 nm EPI excitation wavelength.

[5] = target: T2, Aldehyde dehydrogenase B (ADB) (Escherichia coli, UniProt P37685); assay: ABPP labeling of E. coli cytosol; type: binding; conditions: 100 nM probe concentration, no other off targets
T2 construct: endogenous in cells; host or cells: Escherichia coli K12 lysate, cytosol fraction
Description: To estimate the strength of probe interactions with proteins in the proteome, we compared the reactivity profiles of selected beta-lactones across a broad concentration range from 10 μM to 5 nM.
Proteome samples were adjusted to a final concentration of 1 mg protein/mL by dilution in PBS prior to probe labeling. Experiments for visualization by 1D SDS-PAGE were carried out in 43 μL total volume and those for affinity enrichment in 1892 μL total volume, such that once CC reagents were added, the total reaction volume was 50 μL and 2 mL, respectively. Reactions were initiated by addition of the probe and allowed to incubate for 60 min at room temperature. For heat controls the proteome was denatured with 1 μL of 43% SDS at 95° C. for 6 min and cooled to room temperature before the probe was applied. Following incubation, reporter tagged-azide reagents (13 μM rhodamine-azide for analytical or 20 μM rhodamine-biotin-azide for preparative scale) were added followed by 1 mM TCEP and 100 μM ligand. Samples were gently vortexed and the cycloaddition initiated by the addition of 1 mM CuSO4. The reactions were incubated at room temperature for 1 h (Speers, J. Amer. Chem. Soc. 125 (2003), 4686).

T2 sequence (P37685 whole entry): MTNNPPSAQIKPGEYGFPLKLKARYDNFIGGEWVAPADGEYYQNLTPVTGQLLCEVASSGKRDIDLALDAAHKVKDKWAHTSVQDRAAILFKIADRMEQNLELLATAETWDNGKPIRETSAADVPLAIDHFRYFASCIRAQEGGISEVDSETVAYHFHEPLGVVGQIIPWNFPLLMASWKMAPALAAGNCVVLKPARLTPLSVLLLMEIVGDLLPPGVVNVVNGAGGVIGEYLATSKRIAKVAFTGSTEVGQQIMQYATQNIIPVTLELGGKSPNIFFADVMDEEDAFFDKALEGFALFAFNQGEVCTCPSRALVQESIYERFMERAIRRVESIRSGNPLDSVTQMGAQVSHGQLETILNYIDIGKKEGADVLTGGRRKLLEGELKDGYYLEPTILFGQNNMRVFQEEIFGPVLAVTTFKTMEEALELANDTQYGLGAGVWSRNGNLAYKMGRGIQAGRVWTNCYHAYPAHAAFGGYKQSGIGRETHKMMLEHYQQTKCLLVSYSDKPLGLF
T1 sequence (Q9RQI6 whole entry): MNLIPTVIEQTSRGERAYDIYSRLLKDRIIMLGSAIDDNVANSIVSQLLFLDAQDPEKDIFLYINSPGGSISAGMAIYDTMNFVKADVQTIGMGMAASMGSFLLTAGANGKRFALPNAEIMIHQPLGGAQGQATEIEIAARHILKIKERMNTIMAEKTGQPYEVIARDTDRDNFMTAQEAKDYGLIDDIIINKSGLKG

SMILES: C#CCCCC1OC(=O)C1CCCCCCCC=C (stereo not drawn) [D3, trans-3-(8-nonen-1-yl)-4-(4-pentyn-1-yl)oxetan-2-one]
- total amount down to which almost no proteolysis is observed ([1]; dose down 250-15.6 nmol): 125 nmol
- proteolytic activity of S. aureus ([1]; total amount of 250 nmol applied on Whatman Cards, 1% skim milk LB agar, 37° C. over night): strongly reduce
- amount of extracellular DNase [2]: effect
- KAS II labeling [3]: labeled
- ClpP labeling (probe potency ranking) [4]: most potent probes
- ADB labeling preference [5]: strong preference
